Test results reported in ChEMBL document CHEMBL5649166, “RIP3 induces apoptosis independent of pronecrotic kinase activity” (Mol Cell, 2014).

Key:
[1] = biological target: T1, cGMP-dependent protein kinase 1 (Homo sapiens) (UniProt Q13976); assay: Inhibition of human PKG1a using LRRASLG as substrate at 1 uM in presence of 32P-ATP by Hotspot assay relative to control; values are per cent of control
T1 sequence (whole entry): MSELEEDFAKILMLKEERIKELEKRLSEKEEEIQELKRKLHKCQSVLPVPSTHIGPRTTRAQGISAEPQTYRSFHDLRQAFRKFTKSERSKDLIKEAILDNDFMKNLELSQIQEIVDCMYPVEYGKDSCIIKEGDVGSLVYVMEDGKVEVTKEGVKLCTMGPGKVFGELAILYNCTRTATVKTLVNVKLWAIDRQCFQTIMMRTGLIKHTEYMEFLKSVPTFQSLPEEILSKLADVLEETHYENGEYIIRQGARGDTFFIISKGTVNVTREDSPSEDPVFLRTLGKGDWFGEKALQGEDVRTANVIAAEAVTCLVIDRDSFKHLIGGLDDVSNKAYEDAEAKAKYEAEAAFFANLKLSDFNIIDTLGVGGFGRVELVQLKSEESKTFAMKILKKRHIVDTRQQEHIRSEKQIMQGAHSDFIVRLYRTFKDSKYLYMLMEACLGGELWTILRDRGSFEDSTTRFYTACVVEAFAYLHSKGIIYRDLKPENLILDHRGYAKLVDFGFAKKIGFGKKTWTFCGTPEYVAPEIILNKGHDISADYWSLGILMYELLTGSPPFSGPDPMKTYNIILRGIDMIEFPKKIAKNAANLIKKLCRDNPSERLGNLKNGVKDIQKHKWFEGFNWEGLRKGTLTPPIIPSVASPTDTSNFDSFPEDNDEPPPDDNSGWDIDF

[2] = biological target: Homeodomain-interacting protein kinase 1 (Homo sapiens) (UniProt Q86Z02); assay: Inhibition of human HIPK1 using myelin basic protein as substrate at 1 uM in presence of 32P-ATP by Hotspot assay relative to control; values are per cent of control
Sequence of Homeodomain-interacting protein kinase 1 (Homo sapiens) (Q86Z02 whole entry, looked up): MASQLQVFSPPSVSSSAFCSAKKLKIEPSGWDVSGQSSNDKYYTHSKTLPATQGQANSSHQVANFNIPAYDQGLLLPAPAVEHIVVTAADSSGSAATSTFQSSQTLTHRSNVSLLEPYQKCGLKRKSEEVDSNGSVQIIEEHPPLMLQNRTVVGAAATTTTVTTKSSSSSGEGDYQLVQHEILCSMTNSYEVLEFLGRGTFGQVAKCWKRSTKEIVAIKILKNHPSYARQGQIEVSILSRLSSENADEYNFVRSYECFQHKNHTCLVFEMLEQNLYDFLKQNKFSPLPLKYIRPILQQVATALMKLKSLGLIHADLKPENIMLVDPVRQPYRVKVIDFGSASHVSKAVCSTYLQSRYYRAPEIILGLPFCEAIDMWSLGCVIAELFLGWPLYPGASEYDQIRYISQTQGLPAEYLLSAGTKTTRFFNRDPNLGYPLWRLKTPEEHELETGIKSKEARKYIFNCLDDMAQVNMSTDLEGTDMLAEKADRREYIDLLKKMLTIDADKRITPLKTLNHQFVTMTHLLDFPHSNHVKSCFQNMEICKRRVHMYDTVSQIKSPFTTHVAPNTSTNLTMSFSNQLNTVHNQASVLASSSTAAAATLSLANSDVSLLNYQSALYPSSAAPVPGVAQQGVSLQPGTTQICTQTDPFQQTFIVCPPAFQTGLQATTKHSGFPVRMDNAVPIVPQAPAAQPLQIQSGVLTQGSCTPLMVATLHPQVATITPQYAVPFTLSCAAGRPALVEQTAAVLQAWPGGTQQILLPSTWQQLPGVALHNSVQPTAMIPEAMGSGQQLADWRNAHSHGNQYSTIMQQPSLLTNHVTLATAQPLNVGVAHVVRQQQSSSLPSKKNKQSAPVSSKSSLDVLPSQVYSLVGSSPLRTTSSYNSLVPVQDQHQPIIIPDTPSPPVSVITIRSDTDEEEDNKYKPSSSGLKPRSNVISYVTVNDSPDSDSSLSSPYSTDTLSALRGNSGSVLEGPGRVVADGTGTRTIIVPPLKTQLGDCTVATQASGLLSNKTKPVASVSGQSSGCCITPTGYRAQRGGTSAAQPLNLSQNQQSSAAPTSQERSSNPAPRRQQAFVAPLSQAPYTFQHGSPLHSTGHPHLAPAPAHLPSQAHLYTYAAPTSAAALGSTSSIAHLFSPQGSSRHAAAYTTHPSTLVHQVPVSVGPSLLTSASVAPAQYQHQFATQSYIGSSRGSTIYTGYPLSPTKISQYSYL

[3] = biological target: Serine/threonine-protein kinase PAK 1 (Homo sapiens) (UniProt Q13153); assay: Inhibition of human PAK1 using RRRLSFAEPG as substrate at 1 uM in presence of 32P-ATP by Hotspot assay relative to control; values are per cent of control
Sequence of Serine/threonine-protein kinase PAK 1 (Homo sapiens) (Q13153 whole entry): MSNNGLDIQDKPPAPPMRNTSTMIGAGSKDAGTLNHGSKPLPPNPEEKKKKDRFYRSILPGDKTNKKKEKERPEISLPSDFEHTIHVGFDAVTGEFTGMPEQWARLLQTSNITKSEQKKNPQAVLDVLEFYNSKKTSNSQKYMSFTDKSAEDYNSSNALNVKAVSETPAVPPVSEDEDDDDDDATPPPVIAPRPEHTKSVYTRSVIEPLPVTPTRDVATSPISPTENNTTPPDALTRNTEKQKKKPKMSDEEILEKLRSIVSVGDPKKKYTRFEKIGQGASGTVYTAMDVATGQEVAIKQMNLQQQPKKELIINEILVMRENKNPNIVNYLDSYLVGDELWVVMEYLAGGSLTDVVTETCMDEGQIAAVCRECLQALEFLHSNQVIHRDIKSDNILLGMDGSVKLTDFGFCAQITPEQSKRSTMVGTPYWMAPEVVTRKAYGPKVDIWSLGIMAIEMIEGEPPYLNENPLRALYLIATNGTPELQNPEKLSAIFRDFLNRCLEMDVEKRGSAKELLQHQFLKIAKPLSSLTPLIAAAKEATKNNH

[4] = biological target: T2, Ephrin type-B receptor 3 (Homo sapiens) (UniProt P54753); assay: Residual activity of human EPHB3 using poly[Glu:Tyr] (4:1) as substrate at 1 uM in presence of 32P-ATP by Hotspot assay relative to control
T2 sequence (whole entry): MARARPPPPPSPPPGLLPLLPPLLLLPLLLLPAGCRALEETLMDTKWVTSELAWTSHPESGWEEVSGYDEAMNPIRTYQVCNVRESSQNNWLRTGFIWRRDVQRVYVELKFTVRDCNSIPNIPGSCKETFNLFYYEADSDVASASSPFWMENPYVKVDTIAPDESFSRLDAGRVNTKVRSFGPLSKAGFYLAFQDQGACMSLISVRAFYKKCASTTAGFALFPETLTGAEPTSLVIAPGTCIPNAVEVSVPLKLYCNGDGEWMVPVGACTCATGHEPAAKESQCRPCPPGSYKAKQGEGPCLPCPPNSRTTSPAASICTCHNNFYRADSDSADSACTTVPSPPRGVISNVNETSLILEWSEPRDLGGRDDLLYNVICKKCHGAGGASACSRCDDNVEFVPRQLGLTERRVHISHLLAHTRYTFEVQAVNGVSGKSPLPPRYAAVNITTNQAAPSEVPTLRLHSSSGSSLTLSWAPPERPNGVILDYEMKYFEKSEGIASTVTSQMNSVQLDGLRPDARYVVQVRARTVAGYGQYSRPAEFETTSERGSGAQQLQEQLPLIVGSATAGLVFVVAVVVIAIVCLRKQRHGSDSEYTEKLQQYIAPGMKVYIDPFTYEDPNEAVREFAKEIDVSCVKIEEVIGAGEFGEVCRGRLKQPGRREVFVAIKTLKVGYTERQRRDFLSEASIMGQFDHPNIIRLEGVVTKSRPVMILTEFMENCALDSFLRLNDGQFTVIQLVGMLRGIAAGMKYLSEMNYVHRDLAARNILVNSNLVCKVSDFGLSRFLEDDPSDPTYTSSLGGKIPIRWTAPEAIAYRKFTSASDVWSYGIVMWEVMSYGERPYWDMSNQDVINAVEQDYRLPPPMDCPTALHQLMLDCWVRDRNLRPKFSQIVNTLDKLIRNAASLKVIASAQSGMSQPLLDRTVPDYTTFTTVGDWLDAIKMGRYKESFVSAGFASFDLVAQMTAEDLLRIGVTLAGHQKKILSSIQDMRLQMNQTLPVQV

[5] = biological target: T3, Myotonin-protein kinase (Homo sapiens) (UniProt Q09013); assay: Inhibition of human DMPK using KKRNRRLSVA as substrate at 1 uM in presence of 32P-ATP by Hotspot assay relative to control; values are per cent of control
T3 sequence (whole entry): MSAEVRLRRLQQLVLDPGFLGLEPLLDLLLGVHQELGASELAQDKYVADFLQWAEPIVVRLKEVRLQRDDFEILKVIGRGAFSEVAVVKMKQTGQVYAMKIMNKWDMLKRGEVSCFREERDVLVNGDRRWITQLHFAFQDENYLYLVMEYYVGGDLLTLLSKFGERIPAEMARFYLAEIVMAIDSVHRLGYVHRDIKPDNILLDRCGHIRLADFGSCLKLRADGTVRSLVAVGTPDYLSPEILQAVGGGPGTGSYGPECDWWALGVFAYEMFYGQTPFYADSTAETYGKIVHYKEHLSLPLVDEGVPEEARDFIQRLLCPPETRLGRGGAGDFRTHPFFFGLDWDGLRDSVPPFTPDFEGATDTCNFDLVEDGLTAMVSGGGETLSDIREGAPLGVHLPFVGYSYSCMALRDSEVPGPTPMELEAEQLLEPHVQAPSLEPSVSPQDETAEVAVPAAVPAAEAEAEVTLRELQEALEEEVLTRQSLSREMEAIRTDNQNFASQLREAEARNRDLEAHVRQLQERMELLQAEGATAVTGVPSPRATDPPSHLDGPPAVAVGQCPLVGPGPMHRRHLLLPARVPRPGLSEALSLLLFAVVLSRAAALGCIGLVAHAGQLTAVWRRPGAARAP

| Compound | residual activity [1] [%] | residual activity [2] [%] | residual activity [3] [%] | residual activity [4] [%] | residual activity [5] [%] |
| --- | --- | --- | --- | --- | --- |
| CC(C)S(=O)(=O)c1ccc2nccc(Nc3ccc4scnc4c3)c2c1 | 90.4 | 88.3 | 96.5 | 61.2 | 103 |
| Cc1cc(-c2cnc(N)c3c(-c4ccc5scnc5c4)csc23)n(C)n1 | 69.9 | 102 | 93.8 | 91.4 | 92.1 |
| CNC(=O)c1ccc2c(c1)ncn2-c1ccc(CC(=O)OC(C)(C)C)cc1 | 90.1 | 87.5 | 95.9 | 93.6 | 107 |
